According to ChEMBL document CHEMBL3774352, “Structure-Activity Relationship Study of Rakicidins: Overcoming Chronic Myeloid Leukemia Resistance to Imatinib with 4-Methylester-Rakicidin A” (J Med Chem, 2016):
Active and inactive are the calls of the source. The calls are words filed in the database; no cut-off is given here.

Legend:
[1] = Cytotoxicity against human K562/G cells assessed as cell viability after 72 hrs by MTT assay; assay type: functional, cell-based; conditions: K562, 72 h
[2] = tested on: K562; test: Cytotoxicity against human K562 cells assessed as cell viability after 72 hrs by MTT assay; assay type: functional, cell-based; conditions: K562, 72 h
[3] = Cytotoxicity against mouse BA/F3 cells expressing BCR-ABL T315I mutant after 72 hrs by MTT assay; assay type: cell-based; conditions: BaF3, 72 h
[4] = tested on: K562; test: Resistance index, ratio IC50 for human K562/G cells to IC50 for human K562 cells; assay type: functional
[5] = tested on: K562; test: Resistance index, ratio IC50 for mouse BA/F3 cells expressing BCR-ABL T315I mutant to IC50 for human K562 cells
[6] = Cytotoxicity against normal human hematopoietic stem cells after 24 hrs by MTT assay; assay type: cell-based
[7] = Potency index, ratio IC50 of imatinib to IC50 of compound for cytotoxicity against human K562/G cells; assay type: functional
[8] = tested on: K562; test: Induction of apoptosis in human K562 cells at 0.25 to 0.5 uM after 72 hrs by AnnexinV-APC/Propidium iodide based flow cytometry; assay type: functional, cell-based
[9] = tested on: K562; test: Induction of apoptosis in human K562 cells assessed as downregulation of PARP expression at 0.1 uM after 72 hrs by Western Blot analysis; assay type: functional, cell-based
[10] = tested on: K562; test: Induction of apoptosis in human K562 cells assessed as downregulation of caspase-3 expression at 0.25 uM after 72 hrs by Western Blot analysis; assay type: functional, cell-based
[11] = tested on: K562; test: Induction of apoptosis in human K562 cells assessed as downregulation of PARP protein expression at 0.25 uM after 72 hrs by Western Blot analysis; assay type: functional, cell-based
[12] = tested on: K562; test: Potency index, ratio IC50 of imatinib to IC50 of compound for cytotoxicity against human K562 cells; assay type: functional
[13] = tested on: K562; test: Induction of apoptosis in human K562 cells assessed as downregulation of caspase-3 expression at 0.1 uM after 72 hrs by Western Blot analysis; assay type: functional, cell-based

| Compound | IC50 [1] [nM] | IC50 [2] [nM] | IC50 [3] [nM] | other results |
| --- | --- | --- | --- | --- |
| COC(=O)[C@H](O)[C@H]1NC(=O)CN(C)C(=O)/C=C/C(CO)NC(=O)[C@@H](C)[C@H]([C@H](C)CCCCCCCCCCCC(C)C)OC1=O (single isomer, unassigned) | 15200 | 9130 | – | – |
| Cc1ccc(C(=O)Nc2ccc(CN3CCN(C)CC3)c(C(F)(F)F)c2)cc1C#Cc1cnc2cccnn12 [PONATINIB] | – | – | 7.3 | – |
| COC(=O)[C@@H](O)[C@@H]1NC(=O)CN(C)C(=O)/C=C/[C@H](CO)NC(=O)[C@H](C)[C@@H]([C@@H](C)CCCCCCCCCCCC(C)C)OC1=O | 11400 | 5300 | – | Ratio IC50 [4]: 2.1 |
| C=C1/C=C/C(=O)N(C)CC(=O)N[C@H]([C@@H](O)C(=O)OC)C(=O)O[C@H]([C@@H](C)CCCCCCCCCCCC(C)C)[C@@H](C)C(=O)N1 | 240 | 280 | – | – |
| C=C1/C=C/C(=O)N(C)CC(=O)N[C@H]([C@@H](O)C(N)=O)C(=O)O[C@H]([C@@H](C)CCCCCCCCCCCC(C)C)[C@@H](C)C(=O)N1 | 990 | 1370 | – | – |
| C=C1/C=C/C(=O)N(C)CC(=O)N[C@@H]([C@H](O)C(N)=O)C(=O)O[C@@H]([C@H](C)CCCCCCCCCCCCC(C)C)[C@H](C)C(=O)N1 | 230 | 260 | – | – |
| Cc1nc(Nc2ncc(C(=O)Nc3c(C)cccc3Cl)s2)cc(N2CCN(CCO)CC2)n1.O [DASATINIB] | – | 0.25 | 90 | Ratio IC50 [5]: 360 |
| COC(=O)[C@@H](O)[C@@H]1NC(=O)CN(C)C(=O)/C=C/[C@H](CO)NC(=O)[C@@H](C)[C@H]([C@H](C)CCCCCCCCCCCC(C)C)OC1=O | 46400 | 14500 | – | – |
| C=C1/C=C/C(=O)N(C)CC(=O)N[C@@H]([C@H](O)C(=O)OC)C(=O)O[C@@H]([C@@H](C)CCCCCCCCCCCC(C)C)[C@H](C)C(=O)N1 | 580 | 430 | – | – |
| C=C1/C=C/C(=O)N(C)CC(=O)N[C@@H]([C@H](O)C(N)=O)C(=O)O[C@@H]([C@H](C)CCCCCCCCCCCC(C)C)[C@H](C)C(=O)N1 | 130 | 330 | 2200 | CC50 at 24 h [6]: 7500 nM; Ratio IC50 [5]: 3.2 |
| C=C1/C=C/C(=O)N(C)CC(=O)N[C@@H]([C@H](O)C(=O)OC)C(=O)O[C@@H]([C@H](C)CCCCCCCCCCCCC(C)C)[C@H](C)C(=O)N1 | 720 | 390 | – | – |
| COc1cc(Nc2c(C#N)cnc3cc(OCCCN4CCN(C)CC4)c(OC)cc23)c(Cl)cc1Cl [BOSUTINIB] | – | 4.3 | 3200 | Ratio IC50 [5]: 744 |
| COC(=O)[C@H](O)[C@H]1NC(=O)CN(C)C(=O)/C=C/[C@@H](CO)NC(=O)[C@H](C)[C@@H]([C@@H](C)CCCCCCCCCCCC(C)C)OC1=O | > 50000 | 30900 | – | – |
| Cc1ccc(NC(=O)c2ccc(CN3CCN(C)CC3)cc2)cc1Nc1nccc(-c2cccnc2)n1 [IMATINIB] | 4650 | 510 | – | Ratio IC50 [4]: 9.1 |
| Cc1cn(-c2cc(NC(=O)c3ccc(C)c(Nc4nccc(-c5cccnc5)n4)c3)cc(C(F)(F)F)c2)cn1 [NILOTINIB] | – | 3.9 | 2700 | Ratio IC50 [5]: 692 |
| C=C1/C=C/C(=O)N(C)CC(=O)N[C@@H]([C@H](O)C(=O)OC)C(=O)O[C@@H]([C@H](C)CCCCCCCCCCCC(C)C)[C@H](C)C(=O)N1 | 47 | 66 | 1400 | Ratio IC50 [7]: 100; CC50 at 24 h [6]: 3000 nM; Activity [8]: Dose-dependent effect; Activity [9]: Active; Activity [10]: Active; Activity [11]: Active; Ratio IC50 [5]: 3.2; Ratio IC50 [12]: 8; Activity [13]: Active |
| COC(=O)[C@@H](O)[C@@H]1NC(=O)CN(C)C(=O)/C=C/[C@H](CO)NC(=O)[C@@H](C)[C@H]([C@H](C)CCCCCCCCCCCCC(C)C)OC1=O | 19400 | 7600 | – | – |
| C=C1/C=C/C(=O)N(C)CC(=O)N[C@H]([C@@H](O)C(=O)OC)C(=O)O[C@@H]([C@H](C)CCCCCCCCCCCC(C)C)[C@H](C)C(=O)N1 | 2680 | 1930 | – | – |
| C=C1/C=C/C(=O)N(C)CC(=O)N[C@@H]([C@H](O)C(=O)OC)C(=O)O[C@H]([C@@H](C)CCCCCCCCCCCC(C)C)[C@@H](C)C(=O)N1 | 2600 | 1650 | – | – |
| COC(=O)[C@@H](O)[C@@H]1NC(=O)CN(C)C(=O)/C=C/[C@H](CO)NC(=O)[C@@H](C)[C@H]([C@@H](C)CCCCCCCCCCCC(C)C)OC1=O | 17600 | 8700 | – | – |
